Reference: patent US10023558B2, “Compounds” (CHIESI FARMACEUTICI S.P.A., priority 2016, dated 2018)

Biological target: T1, human neutrophil elastase (HNE) (Homo sapiens, UniProt P08246)
T1 construct: purchased Sigma E8140
T1 sequence (P08246 30-247 limits assumed): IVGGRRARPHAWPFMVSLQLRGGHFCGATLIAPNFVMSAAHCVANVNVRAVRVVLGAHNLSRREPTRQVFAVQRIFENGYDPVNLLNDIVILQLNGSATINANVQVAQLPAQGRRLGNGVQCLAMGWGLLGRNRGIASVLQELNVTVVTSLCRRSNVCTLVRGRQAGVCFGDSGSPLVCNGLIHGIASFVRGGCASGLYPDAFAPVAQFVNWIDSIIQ
Assay: HNE Enzyme Assay (fluorogenic peptide substrate MeOSuc-Ala-Ala-Pro-Val-AMC)
Assay type: biochemical
Conditions: human leukocyte elastase 0.00072 U/mL, substrate 100 μM, 25° C., 30 minutes, at least two separate experiments; read-out: HNE inhibition (IC50 values)
Procedure, shortened: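 Human leukocyte elastase (0.00072 U/mL) with 100 μM MeOSuc-AAPV-AMC in Tris pH 7.5 buffer with NaCl, CaCl2, Brij-35, 1% DMSO, 30 min at 25° C, stopped with soybean trypsin inhibitor. AMC fluorescence (ex 380/em 460 nm); IC50 from concentration-response as % inhibition of control, at least two experiments.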

Row | Compound | IC50 [nM]
1 | Cc1cc(C[N+](C)(C)[C@H]2CC[C@H](NC(=O)n3c(-c4ccnn4-c4ccc(C#N)cc4)c(C)n(-c4cccc(C(F)(F)F)c4)c3=O)CC2)no1 [Example 75, (4-{[5-[2-(4-Cyano-phenyl)-2H-pyrazol-3-yl]-4-methyl-2-oxo-3-(3-trifluoromethyl-phenyl)-2,3-dihydro-imidazole-1-carbonyl]-amino}-cyclohexyl)-dimethyl-(5-methyl-isoxazol-3-ylmethyl)-ammonium chloride] | < 1
2 | Cc1cc(C[N+](C)(C)[C@H]2CC[C@H](NC(=O)n3c(-c4ccnn4-c4ccc(C#N)cc4)c(C)n(-c4cccc(C(F)(F)F)c4)c3=O)CC2)n(C)n1 [Example 76, (4-{[5-[2-(4-Cyano-phenyl)-2H-pyrazol-3-yl]-4-methyl-2-oxo-3-(3-trifluoromethyl-phenyl)-2,3-dihydro-imidazole-1-carbonyl]-amino}-cyclohexyl)-(2,5-dimethyl-2H-pyrazol-3-ylmethyl)-dimethyl-ammonium chloride] | < 1
3 | Cc1c(-c2ccnn2-c2ccc(C#N)cc2)n(C(=O)N[C@H]2CC[C@H](C(=O)NCC[N+](C)(C)C)CC2)c(=O)n1-c1cccc(C(F)(F)F)c1 [Example 77, {2-[(Trans-4-{[5-[2-(4-cyano-phenyl)-2H-pyrazol-3-yl]-4-methyl-2-oxo-3-(3-trifluoromethyl-phenyl)-2,3-dihydro-imidazole-1-carbonyl]-amino}-cyclohexanecarbonyl)-amino]-ethyl}-trimethyl-ammonium benzene sulfonate] | < 1
4 | Cc1c(-c2ccnn2-c2ccc(C#N)cc2)n(C(=O)NC(C)(C)c2ncc(C[N+](C)(C)C)o2)c(=O)n1-c1cccc(C(F)(F)F)c1 [Example 78, [2-(1-{[5-[2-(4-Cyano-phenyl)-2H-pyrazol-3-yl]-4-methyl-2-oxo-3-(3-trifluoromethyl-phenyl)-2,3-dihydro-imidazole-1-carbonyl]-amino}-1-methyl-ethyl)-oxazol-5-ylmethyl]-trimethyl-ammonium benzene sulfonate] | < 1
5 | Cc1c(-c2ccnn2-c2ccc(C#N)cc2)n(C(=O)NC2(c3ncc(C[N+](C)(C)C)o3)CC2)c(=O)n1-c1cccc(C(F)(F)F)c1 [Example 79, [2-(1-{[5-[2-(4-Cyano-phenyl)-2H-pyrazol-3-yl]-4-methyl-2-oxo-3-(3-trifluoromethyl-phenyl)-2,3-dihydro-imidazole-1-carbonyl]-amino}-cyclopropyl)-oxazol-5-ylmethyl]-trimethyl-ammonium benzene sulfonate] | < 1
6 | Cc1c(-c2ccnn2-c2ccc(C#N)cc2)n(C(=O)N[C@H]2CC[C@@H](C(=O)NCC[N+](C)(C)C)CC2)c(=O)n1-c1cccc(C(F)(F)F)c1 [Example 80, {2-[(Cis-4-{[5-[2-(4-cyano-phenyl)-2H-pyrazol-3-yl]-4-methyl-2-oxo-3-(3-trifluoromethyl-phenyl)-2,3-dihydro-imidazole-1-carbonyl]-amino}-cyclohexanecarbonyl)-amino]-ethyl}-trimethyl-ammonium benzene sulfonate] | 1 to 10
7 | Cc1c(-c2ccnn2-c2ccc(C#N)cc2)n(C(=O)N[C@H]2CC[C@H](C(=O)OCC[N+](C)(C)C)CC2)c(=O)n1-c1cccc(C(F)(F)F)c1 [Example 82, [2-(Trans-4-{[5-[2-(4-cyano-phenyl)-2H-pyrazol-3-yl]-4-methyl-2-oxo-3-(3-trifluoromethyl-phenyl)-2,3-dihydro-imidazole-1-carbonyl]-amino}-cyclohexanecarbonyloxy)-ethyl]-trimethyl-ammonium benzene sulfonate] | < 1
8 | Cc1c(-c2ccnn2-c2ccc(C#N)cc2)n(C(=O)N[C@H]2C[C@H](C(=O)NCC[N+](C)(C)C)C2)c(=O)n1-c1cccc(C(F)(F)F)c1 [Example 83, {2-[(Trans-3-{[5-[2-(4-cyano-phenyl)-2H-pyrazol-3-yl]-4-methyl-2-oxo-3-(3-trifluoromethyl-phenyl)-2,3-dihydro-imidazole-1-carbonyl]-amino}-cyclobutanecarbonyl)-amino]-ethyl}-trimethyl-ammonium benzene sulfonate] | < 1
9 | Cc1c(-c2ccnn2-c2ccc(C#N)cc2)n(C(=O)NC2(C)CCN(C(=O)C[N+](C)(C)C)CC2)c(=O)n1-c1cccc(C(F)(F)F)c1 [Example 84, [2-(4-{[5-[2-(4-Cyano-phenyl)-2H-pyrazol-3-yl]-4-methyl-2-oxo-3-(3-trifluoromethyl-phenyl)-2,3-dihydro-imidazole-1-carbonyl]-amino}-4-methyl-piperidin-1-yl)-2-oxo-ethyl]-trimethyl-ammonium benzene sulfonate] | < 1
10 | Cc1c(-c2ccnn2-c2ccc(C#N)cc2)n(C(=O)N[C@H]2CC[C@H](CNC(=O)C[N+](C)(C)C)CC2)c(=O)n1-c1cccc(C(F)(F)F)c1 [Example 86, {[(Trans-4-{[5-[2-(4-cyano-phenyl)-2H-pyrazol-3-yl]-4-methyl-2-oxo-3-(3-trifluoromethyl-phenyl)-2,3-dihydro-imidazole-1-carbonyl]-amino}-cyclohexylmethyl)-carbamoyl]-methyl}-trimethyl-ammonium benzene sulfonate] | < 1
11 | Cc1c(-c2ccnn2-c2ccc(C#N)cc2)n(C(=O)N[C@H]2CC[C@H](NC(=O)C[N+](C)(C)C)CC2)c(=O)n1-c1cccc(C(F)(F)F)c1 [Example 87, [(Trans-4-{[5-[2-(4-cyano-phenyl)-2H-pyrazol-3-yl]-4-methyl-2-oxo-3-(3-trifluoromethyl-phenyl)-2,3-dihydro-imidazole-1-carbonyl]-amino}-cyclohexylcarbamoyl)-methyl]-trimethyl-ammonium benzene sulfonate] | < 1
12 | Cc1c(-c2ccnn2-c2ccc(C#N)cc2)n(C(=O)N[C@H]2CC[C@H](C(=O)N3CCC([N+](C)(C)C)CC3)CC2)c(=O)n1-c1cccc(C(F)(F)F)c1 [Example 88, [1-(Trans-4-{[5-[2-(4-cyano-phenyl)-2H-pyrazol-3-yl]-4-methyl-2-oxo-3-(3-trifiuoromethyl-phenyl)-2,3-dihydro-imidazole-1-carbonyl]-amino}-cyclohexanecarbonyl)-piperidin-4-yl]-trimethyl-ammonium benzene sulfonate] | < 1
13 | Cc1c(-c2ccnn2-c2ccc(C#N)cc2)n(C(=O)N[C@H]2CC[C@H](C(=O)N(C)CC[N+](C)(C)C)CC2)c(=O)n1-c1cccc(C(F)(F)F)c1 [Example 89, {2-[(Trans-4-{[5-[2-(4-cyano-phenyl)-2H-pyrazol-3-yl]-4-methyl-2-oxo-3-(3-trifluoromethyl-phenyl)-2,3-dihydro-imidazole-1-carbonyl]-amino}-cyclohexanecarbonyl)-methyl-amino]-ethyl}-trimethyl-ammonium benzene sulfonate] | < 1
14 | Cc1c(-c2ccnn2-c2ccc(C#N)cc2)n(C(=O)N[C@H]2CC[C@H](C(=O)NC3CC[N+](C)(C)CC3)CC2)c(=O)n1-c1cccc(C(F)(F)F)c1 [Example 90, 4-[(Trans-4-{[5-[2-(4-cyano-phenyl)-2H-pyrazol-3-yl]-4-methyl-2-oxo-3-(3-trifluoromethyl-phenyl)-2,3-dihydro-imidazole-1-carbonyl]-amino}-cyclohexanecarbonyl)-amino]-1,1-dimethyl-piperidinium benzene sulfonate] | < 1
15 | Cc1c(-c2ccnn2-c2ccc(C#N)cc2)n(C(=O)N[C@@H](C)C(=O)N(C)C2CC[N+](C)(C)CC2)c(=O)n1-c1cccc(C(F)(F)F)c1 [Example 91, 4-[((S)-2-{[5-[2-(4-Cyano-phenyl)-2H-pyrazol-3-yl]-4-methyl-2-oxo-3-(3-trifluoromethyl-phenyl)-2,3-dihydro-imidazole-1-carbonyl]-amino}-propionyl)-methyl-amino]-1,1-dimethyl-piperidinium benzene sulfonate] | < 1
16 | Cc1c(-c2ccnn2-c2ccc(C#N)cc2)n(C(=O)NC2CCN(C(=O)NCC[N+](C)(C)C)CC2)c(=O)n1-c1cccc(C(F)(F)F)c1 [Example 92, {2-[(4-{[5-[2-(4-Cyano-phenyl)-2H-pyrazol-3-yl]-4-methyl-2-oxo-3-(3-trifluoromethyl-phenyl)-2,3-dihydro-imidazole-1-carbonyl]-amino}-piperidine-1-carbonyl)-amino]-ethyl}-trimethyl-ammonium benzene sulfonate] | < 1
17 | Cc1c(-c2ccnn2-c2ccc(C#N)cc2)n(C(=O)NC2CCN(C(=O)OCC[N+](C)(C)C)CC2)c(=O)n1-c1cccc(C(F)(F)F)c1 [Example 93, [2-(4-{[5-[2-(4-Cyano-phenyl)-2H-pyrazol-3-yl]-4-methyl-2-oxo-3-(3-trifluoromethyl-phenyl)-2,3-dihydro-imidazole-1-carbonyl]-amino}-piperidine-1-carbonyloxy)-ethyl]-trimethyl-ammonium benzene sulfonate] | < 1
18 | Cc1c(-c2nccn2-c2ccc(C#N)cc2)n(C(=O)NC2CCN(C(=O)C[N+](C)(C)C)CC2)c(=O)n1-c1cccc(C(F)(F)F)c1 [Example 94, [2-(4-{[1-(4-Cyano-phenyl)-5′-methyl-2′-oxo-1′-(3-trifluoromethyl-phenyl)-1′,2′-dihydro-1H-[2,4′]biimidazolyl-3′-carbonyl]-amino}-piperidin-1-yl)-2-oxo-ethyl]-trimethyl-ammonium benzene sulfonate] | < 1
